Experiments:
[1] = biological target: T1, VEGF Receptor 2 Kinase (VEGFR2) (Homo sapiens, UniProt P35968); experiment: Determination of VEGF receptor 2 kinase (VEGFR2) inhibitory activity (alpha screen); format: biochemical; settings: VEGFR2 intracellular domain protein, 25 μM ATP buffer, read-out: inhibitory rate (kinase inhibitory rate of VEGFR2)
T1 construct: made in house; host or cells: SF-21 insect cells, recombinant baculovirus BAC-VEGFR2 (pFASTBAC1)
Method: For cloning of human VEGF receptor 2 (hereinafter to be abbreviated as VEGFR2) gene, PCR was performed using cDNA Libraries Human Placenta (Clontech) as a template. The primer used for PCR was prepared by, based on the information of the base sequence (Genbank Accession AF035121) of VEGFR2 gene, adding a base sequence encoding the flag peptide and a restriction enzyme recognition sequence to the base sequence (2671-4374 of Genbank Accession AF035121) encoding the VEGFR2 intracellular domain, so that a flag tag would be added to the N terminal of the protein. The primer base sequence is shown in the following.
PCR reaction was carried out using a KOD-plus kit (TOYOBO). The obtained PCR product was electrophoresed on an agarose gel (1%), and a DNA fragment amplified by PCR was recovered from the gel and digested with restriction enzymes Sal I and Sph I. The DNA after the restriction enzyme treatment was electrophoresed on an agarose gel (1%), and the obtained DNA fragment was recovered and ligated to the plasmid pFASTBAC1 (Invitrogen) digested with restriction enzymes Sal I and Sph I to give an expression plasmid pFB-VEGFR2. The base sequence of the inserted fragment was confirmed to have matched with the base sequence (2671-4374 of Genbank Accession AF035121) of the VEGFR2 intracellular domain. Furthermore, virus stock BAC-VEGFR2 of the recombinant Baculovirus was prepared using BAC-TO-BAC Baculovirus Expression System (Invitrogen).
SF-21 cells were inoculated into 1 L of Sf-900IISFM medium (Invitrogen) containing 10% fetal calf serum (trace), 50 mg/L Gentamicin (Invitrogen) and 0.1% Pluronic F-68 (Invitrogen) at 1×10^6 cells/ml, and shake culture was performed using a 2 L Erlenmeyer flask at 27° C., 100 rpm. After 24 hr of culture, recombinant Baculovirus BAC-VEGFR2 (13.4 mL) was added, and the culture was continued for 3 days. The culture medium was centrifuged at 2,000 rpm for 5 min to give virus-infected cells. The infected cells were washed with phosphate buffered saline (Invitrogen), centrifuged under the same conditions, and preserved at −80° C. The cryopreserved cells were thawed in ice, suspended in 30 mL of buffer A (Tris buffer, pH 7.4, containing 20% glycerol and 0.15M NaCl (50 mM)) supplemented with Complete Protease Inhibitor (Boehringer), and disrupted three times using a polytron homogenizer (Kinematica) at 20,000 rpm, 30 sec. The disrupt was clarified by centrifugation at 40,000 rpm, 30 min and filtered through a 0.45 μm filter. The filtrate was passed through a column packed with Anti-FLAG M2 Affinity Gel (Sigma Ltd., 4 mL) at a flow rate of about 0.5 mL/min. The column was washed with buffer A and eluted with buffer A containing 100 μg/mL FLAG peptide. The eluate was concentrated by Vivaspin 20 (Viva Science) having a fraction molecular weight of 30K. The concentrate was applied to NAP™ 25 column (Amersham Biosciences) equilibrated with buffer A for buffer exchange. The fractions containing the VEGFR2 intracellular domain protein were collected, glycerol was added to the final concentration of 50% and the fractions cryopreserved at ˜80° C.
The test compound dissolved in dimethyl sulfoxide (DMSO) was diluted with a buffer (50 mM Tris-HCl, pH 7.5, 5 mM MgCl2, 5 mM MnCl2, 2 mM dithiothreitol, 0.01% Tween-20). A buffer (10 μl) containing 50 ng/ml VEGFR2 intracellular domain protein and 250 ng/ml biotin-labeled polypeptide biotinyl-poly-Glu:Tyr (4:1) (CIS Bio International) was added to the compound solution (5 μl). A buffer (10 μl) containing 25 μM ATP was added to the obtained mixture, the mixture was allowed to react at 25° C. for 5 min. Then, 25 μl of a stop solution (100 mM EDTA·2 sodium salt, 62.5 mM HEPES buffer (pH 7.4), 250 mM NaCl, 0.1% bovine serum albumin, 10 μg/ml Streptavidin Donor beads: PerkinElmer for alpha screen assay, 10 μg/ml Anti-phosphotyrosine (P-Tyr-100) Acceptor beads: PerkinElmer for alpha screen assay) was added to quench the reaction. […]

[2] = test system: Human umbilical vein endothelial cells (HUVEC); experiment: Vascular endothelial cell growth inhibitory test; format: cell-based; settings: Homo sapiens, 120 h, VEGF 120 ng/mL, culture 5 days, XTT reagent
Method: Human umbilical vein endothelial cells (HUVEC, purchased from KURABO) were cultured in a gas incubator (37° C., CO2 5%) in a vascular endothelial cell medium (Invitrogen) containing 5% fetal calf serum and a basic fibroblast growth factor (2.5 ng/mL). To be specific, HUVEC suspended in the aforementioned vascular endothelial cell medium (Invitrogen) containing 5% fetal calf serum were seeded into a 96 well flat-bottom plate (50 μL, 3000 cells each well). After culturing overnight, various concentrations of test substance and the final concentration (120 ng/mL) of vascular endothelial growth factor (VEGF) were dissolved in a vascular endothelial cell medium (Invitrogen) containing 5% fetal calf serum and added to each well (50 μL). After culturing for 5 days, an XTT reagent (Wako Pure Chemical Industries, Ltd.) was added to each well (10 μL), and reacted in a gas incubator (37° C., CO2 5%) for 2-3 hr. The absorbance at 450 nm was measured by a microtiter plate reader, and the cell growth inhibitory activity was determined.

T1 sequence (P35968 786-1356 limits assumed): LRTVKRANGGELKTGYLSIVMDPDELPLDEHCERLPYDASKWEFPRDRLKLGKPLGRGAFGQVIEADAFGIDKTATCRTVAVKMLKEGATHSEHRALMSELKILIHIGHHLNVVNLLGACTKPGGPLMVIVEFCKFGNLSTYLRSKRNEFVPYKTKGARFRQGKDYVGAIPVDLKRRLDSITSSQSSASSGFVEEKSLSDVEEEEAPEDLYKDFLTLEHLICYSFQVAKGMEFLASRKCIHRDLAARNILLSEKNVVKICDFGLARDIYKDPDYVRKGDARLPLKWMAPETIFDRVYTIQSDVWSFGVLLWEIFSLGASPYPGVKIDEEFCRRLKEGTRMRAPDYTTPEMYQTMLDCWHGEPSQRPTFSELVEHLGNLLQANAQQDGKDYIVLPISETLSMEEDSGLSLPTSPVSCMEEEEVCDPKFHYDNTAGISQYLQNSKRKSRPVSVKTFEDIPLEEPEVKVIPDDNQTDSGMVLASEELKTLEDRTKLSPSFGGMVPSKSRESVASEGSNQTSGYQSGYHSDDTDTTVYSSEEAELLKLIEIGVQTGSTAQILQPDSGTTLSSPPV

| inhibition at 1 µM [1] [%] | SMILES | IC50 [2] [nM] |
| --- | --- | --- |
| ≥ 90 | Cn1ccc2ncnc(Oc3ccc(NC(=O)Nc4cccc(C(F)(F)F)c4)c(Cl)c3)c21 [Example 15, N-{2-chloro-4-[(5-methyl-5H-pyrrolo[3,2-d]pyrimidin-4-yl)oxy]phenyl}-N′-[3-(trifluoromethyl)phenyl]urea] | 8.2 |
| ≥ 90 | Cn1ccc2ncnc(Oc3ccc(NC(=O)Nc4cccc(OC(F)(F)F)c4)c(Cl)c3)c21 [Example 20, N-{2-chloro-4-[(5-methyl-5H-pyrrolo[3,2-d]pyrimidin-4-yl)oxy]phenyl}-N′-[3-(trifluoromethoxy)phenyl]urea] | 6.6 |
| ≥ 90 | Cc1cc(Oc2ncnc3ccn(C)c23)ccc1NC(=O)Nc1cccc(C(F)(F)F)c1 [Example 41, N-{2-methyl-4-[(5-methyl-5H-pyrrolo[3,2-d]pyrimidin-4-yl)oxy]phenyl}-N′-[3-(trifluoromethyl)phenyl]urea] | 19 |
| ≥ 90 | CCn1ccc2ncnc(Oc3ccc(NC(=O)Nc4cccc(C(F)(F)F)c4)c(Cl)c3)c21 [Example 47, N-{2-chloro-4-[(5-ethyl-5H-pyrrolo[3,2-d]pyrimidin-4-yl)oxy]phenyl}-N′-[3-(trifluoromethyl)phenyl]urea] | 11 |

Reference: patent publication US20090137580A1, “Fused Heterocyclic Derivatives and Use Thereof” (Takeda Pharmaceutical Company Limited, priority 2005, published 2009)
